Assays:
[1] = tested on: SW1 cells; assay: cells; assay type: cell-based, mouse; conditions: for Activity or EC50 (μM) in SW1 cells: active/inactive wording, concentration given in cell
Experimental: (§1) Cell lines. Mouse melanoma (SW1) and human melanoma (LU1205) cells were maintained in DMEM supplemented with 10% FBS, L-glutamine and antibiotics. The human melanoma cell lines MEWO and WM115 were maintained in RPMI supplemented with 10% FBS and antibiotics. Primary mouse melanocytes were cultured in F-12 media supplemented with 10% FBS, antibiotics, IBMX (isobuthyl-methylxantine), bovine pituitary extract, and TPA.
Mitochondrial activity and apoptosis. Cells were exposed to the chemicals for 12-48 hours as indicated in Results. To measure changes in mitochondrial activity reflective of general cell viability, the ATPLITE ATP detection assay was used according to the manufacturer's recommendations (Perkin Elmer). Apoptosis analysis was performed by flow cytometry of PI-stained cells. The percentage of cells to the left of the diploid G0/1 peak, characteristic of hypodiploid cells that have partially lost DNA, was calculated as percentage of apoptotic cells (Bhoumik et al., PNAS 101:4222-7, 2004). Analysis of changes in Caspase 8 expression pattern was performed using immunoblot analysis. […]
Characterization of CSL and AIGA effects on mouse melanoma cells. The structures of AIGA and CSL are depicted in FIGS. 1a and 1b. AIGA was tested for cytotoxicity at concentrations ranging between 0.1 and 2 μM, whereas CSL was used at a concentration of 0.01 to 0.3 μM. SW1 cells or normal melanocytes were seeded on 96 well plates and 24 h late, cells were treated with the indicated concentrations of ATF2 50-100 peptide, AIGA, or CSL for 20 h. ATF2 50-100 peptide (cloned in mammalian expression vector in frame with penetratin was transfected with the aid of lipofectamine) was used as a positive control. ATP levels were used as an indicator of cell viability and were measured using the ATPLITE ATP detection assay kit. The number of surviving cells upon AIGA treatment was normalized to the number of surviving cells under the control treatment, and the normalized number was designated as the “% Viability.” Results shown in FIGS. 1c-1f represent 3 experiments. Treatment of SW1 melanoma cells with 1 μM of AIGA reduced the viability of melanoma cells to 10%, (FIG. 1c). Treatment of the SW1 cells with 0.05 μM of CSL reduced the viability of melanoma cells to 50%, and 0.1 μM reduced it to 10% (FIG. 1d). […] Normal melanocytes and fibroblasts were used as a control.
Thus, the two compounds were evaluated to determine if they require JNK activity for their effects on melanoma cells. To this end, the ability of AIGA or CSL to affect the viability of melanoma cells in the presence of a JNK inhibitor was tested. SW1 cells, with or without a 30-minute pretreatment with the JNK inhibitor SP600125 (10 μM), were contacted with AIGA or CSL at the indicated concentrations for 20 h. ATP levels were used to measure the cell viability using the ATPLITE kit. The number of surviving cells upon AIGA or CSL treatment was normalized to the number of surviving cells under the control treatment, and the normalized number was designated as the “% Viability.” Shown are representative results from 2 experiments. […] Of note, inhibition of JNK activity was more pronounced at lower concentrations of CSL compared with AIGA. […] To assess whether these compounds affect JNK activity, changes in JNK phosphorylation on residues 183/185, which are required for its kinase activity, were monitored. Western blot analysis for JNK phosphorylation on residues 183/185 was performed on protein extracts that were prepared from cells treated with AIGA at concentrations of 0.5 μM, 1.0 μM, and 2.0 μM and a control with no AIGA treatment. Duplicate samples were treated with JNK inhibitor (SP600125). Total level of JNK was analyzed in parallel. […]

[2] = tested on: WM115 cells; assay: WM115 melanoma cell viability; assay type: cell-based, human; conditions: active/inactive wording, concentration given in cell
Experimental: as §1
(§2) Mitochondrial activity and apoptosis. Cells were exposed to the chemicals for 12-48 hours as indicated in Results. To measure changes in mitochondrial activity reflective of general cell viability, the ATPLITE ATP detection assay was used according to the manufacturer's recommendations (Perkin Elmer). Apoptosis analysis was performed by flow cytometry of PI-stained cells. The percentage of cells to the left of the diploid G0/1 peak, characteristic of hypodiploid cells that have partially lost DNA, was calculated as percentage of apoptotic cells (Bhoumik et al., PNAS 101:4222-7, 2004). Analysis of changes in Caspase 8 expression pattern was performed using immunoblot analysis.
The effects of CSL and AIGA on the human melanoma cell lines WM115 and MEWO were assessed. AIGA reduced the viability of the human melanoma cultures when added at a concentration of 0.5-2 μM (FIG. 5a and FIG. 5c) whereas CSL reduced their viability at a concentration of 0.1 μM-2 μM in WM115 cells (FIG. 5b) and 0.05 μM-2 μM in MeWO cells (FIG. 5d).

[3] = tested on: WM793 cells; assay: WM793 melanoma cell viability; assay type: cell-based, human; conditions: active/inactive wording, concentration given in cell
Experimental: as §2

[4] = Tolerability of administration to mice; assay type: in vivo, mouse; conditions: daily administration, doses up to 1 mg/kg
Experimental: (§3) To assess the ability of CSL and CSL derivatives to affect the tumorigenicity and metastasis of melanoma, the mouse SW1 cell lines were used in syngeneic models. Injection of SW1 melanoma cells subcutaneously into C3H mice was followed by daily injections of CSL intraperitoneally (IP). […] Briefly, SW1 cells that stably express GFP were injected s.c into C3H mice. When the tumor reached the size of 50 mm^3, the vehicle, CSL (1 mg/kg), CA16 (0.5 mg/kg) or CA19 (0.5 mg/kg) were administered i.p, every second day for a period of 24 days. Tumor size was measured at the indicated times. Data presented in FIG. 6b represents two experiments.

[5] = tested on: SW1 tumors; assay: SW1 tumor growth in syngeneic C3H mice; assay type: in vivo, mouse; conditions: 0.5 mg/kg i.p. every second day for 24 days
Experimental: (§4) Tumor growth and metastasis in vivo. GFP-expressing SW1 cells were trypsinized, resuspended in PBS, and injected subcutaneously (1×10^6) into the lower flank of 6 to 7-week-old mice. When tumors reached a size of about 50 mm^3, the indicated compounds (100 μL of the vehicle—10% DMSO, 70% Cremophor/ethanol (3:1), and 20% PBS and 1.0 mg/kg of celastrol or 0.5 mg/kg of the derivatives CA16, CA19) were injected i.p. every alternate day. Body weight and tumor growth were monitored every 2 days. GFP-expressing SW1 tumors were monitored in vivo on shaved mice with a light box illuminated by blue light fiber optics (Lightools Research; Encinitas, Calif.), and imaging was carried out with a digital camera (Nikon D100). Tumors were measured for up to 3 weeks. For metastases studies, LU1205 cells (1×10^6) were injected i.v. into the lateral tail vein of nude mice. At the end of the experiment, the lungs and tumors were excised and weighed. To detect metastatic lesions, lungs were fixed in formalin, embedded in paraffin and subjected to hematoxylin and eosin staining.
as §3

[6] = tested on: Human melanoma LU1205 cells; assay: LU1205 lung metastasis in nude mice; assay type: in vivo, mouse; conditions: compound every second day, analysis 60 days after injection
Experimental: as §4
The effect of CSL and CSL derivatives, CA16 and CA19, on the metastatic capacity of melanoma cells was then determined. Human melanoma LU1205 cells were injected into the tail vein of nude mice, followed by administration of the compounds every second day. This approach allows monitoring of changes in the number of lesions formed on the lungs, a primary organ for tumor cell growth under this experimental approach. Analysis performed 60 days following injection determined changes in the number and size of metastatic lesions in each of the experimental groups.

[7] = tested on: SW1 mouse melanoma; assay: SW1 metastatic lesions in syngeneic C3H mice; assay type: in vivo; conditions: SW1 cells s.c. in C3H mice
Experimental: as §4
To further assess the impact of these compounds on the development of metastatic lesions, the SW1 mouse melanoma model using the syngeneic C3H strain was employed. Subcutaneous injection of SW1 cells results in tumor formation at the site of injection followed by metastasis to different sites within 6-8 weeks.

| Structure (SMILES) | Activity or EC50 (μM) in SW1 cells [1] | Activity or EC50 (μM) in WM115 cells [2] | Activity or EC50 (μM) in WM793 cells [3] | also measured |
| --- | --- | --- | --- | --- |
| CC1=C(O)C(=O)C=C2C1=CC=C1C2(C)CCC2(C)C3CC(C)(C(=O)N4CCCC4)CCC3(C)CCC12C (centres unmarked) [CA06] | active |  |  |  |
| Cc1c(O)c(O)cc2c1CC=C1[C@@]2(C)CC[C@@]2(C)[C@@H]3C[C@](C)(C(=O)O)CC[C@]3(C)CC[C@]12C [Dihydrocelastrol, dihydrocelastrol, reference compound] | inactive |  |  |  |
| CC1=C(O)C(=O)C=C2C1=CC=C1C2(C)CCC2(C)C3CC(C)(C(=O)NCc4ccccc4)CCC3(C)CCC12C (centres unmarked) [CA02] | inactive | inactive | inactive |  |
| CC1=C(O)C(=O)C=C2C1=CC=C1C2(C)CCC2(C)C3CC(C)(C(=O)OCc4ccccc4)CCC3(C)CCC12C (centres unmarked) [CA16] |  |  |  | toxicity or discomfort in mice [4]: did not result in toxicity or any noticeable discomfort; decrease in tumor size [5]: about 50%; 1-2 mm and mediastinal lesions [6]: some activity was observed; development of large lung lesions [6]: no impact; development of small sized lesions [7]: opposite effect; metastatic lesions [7]: somewhat active |
| COc1ccc(CNC(=O)C2(C)CCC3(C)CCC4(C)C5=CC=C6C(=CC(=O)C(O)=C6C)C5(C)CCC4(C)C3C2)cc1 (centres unmarked) [CA01] | active |  |  |  |
| CC1=C(O)C(=O)C=C2C1=CC=C1C2(C)CCC2(C)C3CC(C)(C(=O)NCc4cccnc4)CCC3(C)CCC12C (centres unmarked) [CA03] | active | Inactive | inactive |  |
| CC1=C(O)C(=O)C=C2C1=CC=C1C2(C)CCC2(C)C3CC(C)(C(=O)OC(C)C)CCC3(C)CCC12C (centres unmarked) [CA19] |  |  |  | toxicity or discomfort in mice [4]: did not result in toxicity or any noticeable discomfort; reduction of tumor growth [5]: 5 fold; growth of large, medium and small sized lesions in the lungs [6]: efficient in inhibiting growth of large medium and small sized lesions in the lungs; metastatic lesions [7]: potently exhibit the ability to inhibit large as well as small metastatic lesions, with the exception of the 1-2 mm range |
| CC1=C(O)C(=O)C=C2C1=CC=C1C2(C)CCC2(C)C3CC(C)(C(=O)N(C)C)CCC3(C)CCC12C (centres unmarked) [CA05] | active |  | inactive |  |
| CC1=C(O)C(=O)C=C2C1=CC=C1C2(C)CCC2(C)C3CC(C)(C(=O)N4CCOCC4)CCC3(C)CCC12C (centres unmarked) [CA08] | inactive | inactive | inactive |  |
| COC(=O)[C@]1(C)CC[C@]2(C)CC[C@]3(C)C4=CC=C5C(=CC(=O)C(O)=C5C)[C@]4(C)CC[C@@]3(C)[C@@H]2C1 [Pristimerin, pristimerin, reference compound] |  |  |  | EC50 ([1]; Mus musculus, numeric EC50 cells of the column, read-out: Activity or EC50 (μM) in SW1 cells): < 0.1 µM |
| CCOC(=O)C1(C)CCC2(C)CCC3(C)C4=CC=C5C(=CC(=O)C(O)=C5C)C4(C)CCC3(C)C2C1 (centres unmarked) [CA18] |  |  |  | ability to induce melanoma cell death, in words ([1]; SW1 cells, compared with celastrol or other derivatives): not that efficient in the SW1 melanoma cells compared to CA19 |
| CC1=C(O)C(=O)C=C2C1=CC=C1C2(C)CCC2(C)C3CC(C)(C(=O)NC(C)C)CCC3(C)CCC12C (centres unmarked) [CA04] | active |  | inactive |  |
| CNC(=O)C1(C)CCC2(C)CCC3(C)C4=CC=C5C(=CC(=O)C(O)=C5C)C4(C)CCC3(C)C2C1 (centres unmarked) [CA13] |  | inactive | inactive |  |
| CC1=C(O)C(=O)C=C2C1=CC=C1C2(C)CCC2(C)C3CC(C)(C(=O)N4CCN(C)CC4)CCC3(C)CCC12C (centres unmarked) [CA14] |  | inactive | inactive |  |
| COCCNC(=O)C1(C)CCC2(C)CCC3(C)C4=CC=C5C(=CC(=O)C(O)=C5C)C4(C)CCC3(C)C2C1 (centres unmarked) [CA07] | active | inactive |  |  |
| COC(=O)COC(=O)C1(C)CCC2(C)CCC3(C)C4=CC=C5C(=CC(=O)C(O)=C5C)C4(C)CCC3(C)C2C1 (centres unmarked) [CA15] | Inactive |  |  |  |

Reference: US7888355B2, “Compositions and methods for inhibiting growth and metastasis of melanoma” (Burnham Institute for Medical Research, priority 2007, dated 2011)
